Reference: patent publication US20230167073A1 (Teijin Pharma Limited, priority 2020, published 2023)

target: T1, Human TRPC6 (Homo sapiens, UniProt Q9Y210); assay: Evaluation of TRPC6 channel inhibitory activity (2), HEK293 cells with stably introduced human TRPC6, OAG stimulation, FLIPR tetra (Compound Nos. 1293 to 1405); format: cell-based; details: HEK293 cells with stably introduced human TRPC6, OAG 50 μM/0.5% DMSO, read-out: Inhibitory activity (pIC50 class) (converted)
T1 construct: expressed in transfected cells
T1 sequence (Q9Y210 1-931): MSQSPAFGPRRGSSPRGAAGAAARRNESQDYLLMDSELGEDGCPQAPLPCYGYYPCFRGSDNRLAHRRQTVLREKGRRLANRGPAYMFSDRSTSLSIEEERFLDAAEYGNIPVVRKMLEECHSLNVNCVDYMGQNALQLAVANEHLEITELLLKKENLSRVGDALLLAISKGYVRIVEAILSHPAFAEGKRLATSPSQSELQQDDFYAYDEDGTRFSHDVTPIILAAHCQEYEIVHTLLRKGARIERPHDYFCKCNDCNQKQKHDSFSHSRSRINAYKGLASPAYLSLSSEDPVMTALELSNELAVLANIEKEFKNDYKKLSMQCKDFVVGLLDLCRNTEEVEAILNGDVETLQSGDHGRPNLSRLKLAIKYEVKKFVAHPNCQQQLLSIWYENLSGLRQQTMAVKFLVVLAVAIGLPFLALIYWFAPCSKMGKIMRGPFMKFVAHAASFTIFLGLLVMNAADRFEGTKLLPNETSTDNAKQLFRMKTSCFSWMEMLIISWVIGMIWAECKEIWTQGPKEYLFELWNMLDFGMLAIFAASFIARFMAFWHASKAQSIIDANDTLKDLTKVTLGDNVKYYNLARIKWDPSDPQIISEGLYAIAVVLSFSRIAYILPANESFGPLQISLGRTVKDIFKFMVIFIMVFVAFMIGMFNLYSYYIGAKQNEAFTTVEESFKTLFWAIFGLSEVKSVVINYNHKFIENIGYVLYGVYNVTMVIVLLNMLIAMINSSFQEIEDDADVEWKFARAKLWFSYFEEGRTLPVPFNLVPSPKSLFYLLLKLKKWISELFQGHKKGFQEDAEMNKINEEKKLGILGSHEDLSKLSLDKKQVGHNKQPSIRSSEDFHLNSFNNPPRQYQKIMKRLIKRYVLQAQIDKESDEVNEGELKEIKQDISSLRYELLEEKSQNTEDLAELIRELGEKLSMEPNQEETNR
Method: Evaluation of TRPC6 Channel Inhibitory Activity (2) (Compound Nos. 1293 to 1405)
The activity of the TRPC6 inhibitor was measured by stimulating HEK293 cells, in which human TRPC6 was stably introduced, with OAG (1-Oleoyl-2-acetyl-sn-glycerol, Miliipore Sigma, 06754), using the FLIPR tetra system. The cells were proliferated in a humid environment at 37° C. 5% CO2 using a growth medium (DMEM (Dulbecco's Modified Eagle's Medium) high glucose containing 10% fetal bovine serum, 1×PSGlu (penicillin-streptomycin glutamine), 1×NEAA (Non-essential amino acid), sodium pyruvate and 200 μg/mL hyglomycin. For cell subculture, the cells were proliferated to 70-90% confluence, and gently washed twice with PBS (phosphate-buffered saline) free of calcium and magnesium after removing the medium. Then, the cells were incubated at 37° C. for 5 minutes after adding trypsin (3 mL), peeled off by tapping the flask at the base of the hand, 7 mL of growth medium was added to inactivate trypsin, and then the cells were resuspended. Usually, the cells were separated every 2-3 days to become a cell density of ⅕. The day before evaluation, the cells were seeded in a poly-D-lysine (PDL) coated 384-well plate using a multi-channel pipette or multidrop at a cell density of 1.0-1.5×10^4 cells/25 μL/well. After culturing overnight in a PDL-coated 384 Blackwell plate, a fluorescent dye buffer was added first to the cells and the cells were cultured at room temperature for 90-120 minutes. For preparing 10 mL of fluorescent dye buffer, 9 mL of assay buffer, 1 mL of 10×PBX signal enhancer, and 10 μL of calcium indicator were mixed. Cells treated with the compounds of each level 25 minutes before the stimulation with OAG of TRPC6 agonist were incubated. OAG solution was prepared by adding OAG to assay buffer (Ca ringer solution base: 10 mM HEPES (4-(2-hydroxyethyl)-1-piperazine-ethanesulfonic acid), 4 mM MgCl2, 120 mM NaCl, 5 mM KCl, pH=7.2 (25° C.)+0.1% BSA+2 mM CaCl2)) to give an OAG concentration of 0.2 mM/2% DMSO. The final concentration of OAG added to the cells is 50 μM/0.5% DMSO. A volume of 12.5 μL of OAG solution was added, and activation of TRPC6 channel was measured using the FLIPR tetra system assaying the change in intracellular calcium level as an index. The 180 seconds imaging frame was defined as the background signal, and the subtraction of the background signal from the raw data was used as the fluorescence peak signal. Each fluorescence peak signal is standardized using an OAG-induced signal and buffer-induced signal as 100% and 0%, respectively. The inhibition rate obtained by plotting the peak signal after the addition of the compounds of each level was analyzed by a four-parameter logistic regression to quantify the inhibition rate in the logarithm of the inverse of the effective concentration which gives a 50% inhibition rate (pIC50). The intensity was expressed by the above-mentioned symbols (+, ++, +++).

Structure (SMILES)	IC50
Cn1nc(C2CCOCC2)cc1Oc1cc(Cl)ccc1-c1ncc(CN)cn1 [compound 1362, [2-[4-chloro-2-[2-methyl-5-(oxan-4-yl)pyrazol-3-yl]oxyphenyl]pyrimidin-5-yl]methanamine]	0.01 to 1 µM
Cn1nc(C2CC2)cc1Oc1cc(Cl)ccc1-c1ncc([C@@H](F)CN)cn1 [compound 1348, (2R)-2-[2-[4-chloro-2-(5-cyclopropyl-2-methylpyrazol-3-yl)oxyphenyl]pyrimidin-5-yl]-2-fluoroethanamine]	< 0.01 µM
Cn1nc(C2CCOCC2)cc1Oc1cc(C#N)ccc1-c1ncc([C@@H](F)CN)cn1 [compound 1313, 4-[5-[(1R)-2-amino-1-fluoroethyl]pyrimidin-2-yl]-3-[2-methyl-5-(oxan-4-yl)pyrazol-3-yl]oxybenzonitrile]	0.01 to 1 µM
COc1nc(-c2ccc(C#N)cc2Oc2cc(C)nc(N3CCOCC3)c2)ccc1CN [compound 1305, 4-[5-(aminomethyl)-6-methoxypyridin-2-yl]-3-(2-methyl-6-morpholin-4-ylpyridin-4-yl)oxybenzonitrile]	0.01 to 1 µM
Cn1nc(C2CCOCC2)cc1Oc1cc(C#N)ccc1-c1ccc(C(F)(F)CN)cn1 [compound 1400, 4-[5-(2-amino-1,1-difluoroethyl)pyridin-2-yl]-3-[2-methyl-5-(oxan-4-yl)pyrazol-3-yl]oxybenzonitrile]	0.01 to 1 µM
Cn1nc(-c2ccccn2)cc1Oc1cc(C#N)ccc1-c1ncc2c(n1)CNC2 [compound 1393, 4-(6,7-dihydro-5H-pyrrolo[3,4-d]pyrimidin-2-yl)-3-(2-methyl-5-pyridin-2-ylpyrazol-3-yl)oxybenzonitrile]	0.01 to 1 µM
Cc1nc(Oc2cc(C#N)ccc2-c2ncc([C@H](F)CN)cn2)cc(N2CCOCC2)n1 [compound 1403, 4-[5-[(1S)-2-amino-1-fluoroethyl]pyrimidin-2-yl]-3-(2-methyl-6-morpholin-4-ylpyrimidin-4-yl)oxybenzonitrile]	0.01 to 1 µM
Cn1nc(-c2ccccn2)cc1Oc1cc(Cl)ccc1-c1ncc([C@@H](F)CN)cn1 [compound 1325, (2R)-2-[2-[4-chloro-2-(2-methyl-5-pyridin-2-ylpyrazol-3-yl)oxyphenyl]pyrimidin-5-yl]-2-fluoroethanamine]	< 0.01 µM
Cc1cc(Oc2cc(C#N)ccc2-c2cccc3cnc(N)nc23)cc(N2CCOCC2)n1 [compound 1303, 4-(2-aminoquinazolin-8-yl)-3-(2-methyl-6-morpholin-4-ylpyridin-4-yl)oxybenzonitrile]	> 1 µM
Cn1nc(C2CCOCC2)cc1Oc1cc(Cl)ccc1-c1ccc(CN)cn1 [compound 1361, [6-[4-chloro-2-[2-methyl-5-(oxan-4-yl)pyrazol-3-yl]oxyphenyl]pyridin-3-yl]methanamine]	< 0.01 µM
Cn1nc(-c2ccccn2)cc1Oc1cc(Cl)ccc1-c1ncc(CN)cn1 [compound 1323, [2-[4-chloro-2-(2-methyl-5-pyridin-2-ylpyrazol-3-yl)oxyphenyl]pyrimidin-5-yl]methanamine]	< 0.01 µM
Cn1nc(-c2ccccn2)cc1Oc1cc(C#N)ccc1-c1nc(Cl)ccc1CN [compound 1333, 4-[3-(aminomethyl)-6-chloropyridin-2-yl]-3-(2-methyl-5-pyridin-2-ylpyrazol-3-yl)oxybenzonitrile]	0.01 to 1 µM
Cn1nc(-c2ccccn2)cc1Oc1cc(C#N)ccc1-c1ccc(C(F)(F)CN)cn1 [compound 1312, 4-[5-(2-amino-1,1-difluoroethyl)pyridin-2-yl]-3-(2-methyl-5-pyridin-2-ylpyrazol-3-yl)oxybenzonitrile]	< 0.01 µM
Cn1nc([C@@H]2CCOC2)cc1Oc1cc(C#N)ccc1-c1ccc(CN)cn1 [compound 1306, 4-[5-(aminomethyl)pyridin-2-yl]-3-[2-methyl-5-[(3S)-oxolan-3-yl]pyrazol-3-yl]oxybenzonitrile]	< 0.01 µM
Cc1nc(Oc2cc(Cl)ccc2-c2ncc(CCN)cn2)cc(N2CCOCC2)n1 [compound 1378, 2-[2-[4-chloro-2-(2-methyl-6-morpholin-4-ylpyrimidin-4-yl)oxyphenyl]pyrimidin-5-yl]ethanamine]	0.01 to 1 µM
Cc1cc(Oc2cc(C#N)ccc2-c2ncc(CN)cn2)nc(N2CCOCC2)n1 [compound 1298, 4-[5-(aminomethyl)pyrimidin-2-yl]-3-(6-methyl-2-morpholin-4-ylpyrimidin-4-yl)oxybenzonitrile]	0.01 to 1 µM
Cn1nc(-c2ccccn2)cc1Oc1cc(C#N)ccc1-c1ccc(CN)c(Cl)n1 [compound 1334, 4-[5-(aminomethyl)-6-chloropyridin-2-yl]-3-(2-methyl-5-pyridin-2-ylpyrazol-3-yl)oxybenzonitrile]	< 0.01 µM
Cn1nc([C@H]2CCOC2)cc1Oc1cc(Cl)ccc1-c1ccc(CN)cn1 [compound 1345, [6-[4-chloro-2-[2-methyl-5-[(3R)-oxolan-3-yl]pyrazol-3-yl]oxyphenyl]pyridin-3-yl]methanamine]	0.01 to 1 µM
Cn1nc(-c2ccccn2)cc1Oc1cc(Cl)ccc1-c1ncc(CCN)cn1 [compound 1322, 2-[2-[4-chloro-2-(2-methyl-5-pyridin-2-ylpyrazol-3-yl)oxyphenyl]pyrimidin-5-yl]ethanamine]	< 0.01 µM
Cn1nc(C2CCOCC2)cc1Oc1cc(Cl)ccc1-c1ncc(CCN)cn1 [compound 1390, 2-[2-[4-chloro-2-[2-methyl-5-(oxan-4-yl)pyrazol-3-yl]oxyphenyl]pyrimidin-5-yl]ethanamine]	0.01 to 1 µM
Cn1nc(C2CCOCC2)cc1Oc1cc(Cl)ccc1-c1ncc([C@@H](F)CN)cn1 [compound 1360, (2R)-2-[2-[4-chloro-2-[2-methyl-5-(oxan-4-yl)pyrazol-3-yl]oxyphenyl]pyrimidin-5-yl]-2-fluoroethanamine]	< 0.01 µM
Cn1nc(-c2ccccn2)cc1Oc1cc(C#N)ccc1-c1ccc([C@H](F)CN)cn1 [compound 1302, 4-[5-[(1S)-2-amino-1-fluoroethyl]pyridin-2-yl]-3-(2-methyl-5-pyridin-2-ylpyrazol-3-yl)oxybenzonitrile]	< 0.01 µM
Cn1nc(C2CCOCC2)cc1Oc1cc(Cl)cnc1-c1ccc([C@@H](F)CN)cn1 [compound 1372, (2R)-2-[6-[5-chloro-3-[2-methyl-5-(oxan-4-yl)pyrazol-3-yl]oxypyridin-2-yl]pyridin-3-yl]-2-fluoroethanamine]	> 1 µM
Cn1nc(C2CCOCC2)cc1Oc1cc(Cl)cnc1-c1ccc(C(F)(F)CN)cn1 [compound 1399, 2-[6-[5-chloro-3-[2-methyl-5-(oxan-4-yl)pyrazol-3-yl]oxypyridin-2-yl]pyridin-3-yl]-2,2-difluoroethanamine]	> 1 µM
Cn1nc(C2CC2)cc1Oc1cc(C#N)ccc1-c1ccc(C(F)(F)CN)nc1 [compound 1294, 4-[6-(2-amino-1,1-difluoroethyl)pyridin-3-yl]-3-(5-cyclopropyl-2-methylpyrazol-3-yl)oxybenzonitrile]	> 1 µM
